Test results: patent US5519043A, “Fluorenyl derivatives” (Scios Nova Inc., priority 1993, dated 1996)

Experiments:
[1] = tested on: plasma fibrinogen in arthritis model; experiment: Adjuvant arthritis test: inhibition of adjuvant-elevated plasma fibrinogen in rats; type: in vivo, Male Sprague Dawley rats; details: rat
[2] = tested on: reverse passive Arthus reaction (blueing by antigen and antibody); experiment: Reverse Passive Arthus Reaction (RPA); type: in vivo, Male SD rats; details: rat
Procedure: Male SD rats weighing between 200 and 300 g were used. Test compounds were dissolved in dimethyl sulfoxide and 1 ml/kg of this stock solution (100 mg/ml), on serial dilutions were injected intraperitoneally one hour before administration of the antigen or given orally. The animals were anesthetized inhalationally with isoflurane and then injected through the penile vein with 1 ml of a solution of 2.5 mg of Evan's blue dye and 5.0 mg of human serum albumin in 1 ml of saline. This treatment was followed immediately by intracutaneous injections of 0.075 ml of anti-human albumin diluated to contain 4.38 mg/ml of antibody at 2 sites opposite the midline back. Anesthesia was terminated and after three hours, the animals were sacrificed. The skin was removed and the blue stained areas cut out. The skin patches were soaked overnight in stoppered tubes containing 2 ml of 1N potassium hydroxide at 5° C. Then 9 ml of a mixture of five parts of a 1.2N phosphoric acid and thirteen parts of acetone were added to the tubes. The tube contents were agitated and centrifuged, and the absorbance measured at 620 nm. The data were calculated as inhibition of blueing by test compound compared to control animals receiving only antigen and antibody.

[3] = tested on: ear edema caused by oxazolone; experiment: Inhibition of Ear Edema Caused by Oxazolone; type: in vivo, CF-1 mice; details: mouse, 24 hours
Procedure: CF-1 mice, 25-30 g body weight, six animals per group were used. The mice were sensitized to the irritant two weeks prior to the test by dribbling 100 μL of a 3% solution of oxazolone in acetone onto the scrotum of the animal. Test compounds were administered orally at doses of 100 mg/kg and 300 mg/kg for 1 hour prior to oxazolone, intraperitoneally as follows: The test compound was dissolved in dimethyl sulfoxide and doses of 10 mg/kg, 30 mg/kg, and 100 mg/kg were injected 15 mintures prior to irritant. The irritant, 3% oxazolone in acetone, was added to the surface of the ear, 5 μL added to the upper surface and 5 μL added to the lower surface. After twenty four hours the thickness of the ear was measured to 0.01 mm by a micrometer with loose drag, positioned at the lateral-most edge of the mid-point of the pinna. Data were calculated as the inhibition of increased ear thickness compared to control animals' receiving only the irritant. In general, % inhibition of greater than 20% is statistically significant (p<0.05 or less, Student's t-test for unpaired data).

SMILES | AA (i.p.) % inhibition at 100 mg/kg (inhibited plasma fibrinogen in arthritis model) ([1]; 100 mg/kg) | AA (p.o.) % inhibition at 100 mg/kg (inhibited plasma fibrinogen in arthritis model) ([1]; 100 mg/kg) | RPA (p.o.) 100 mg/kg inhibition [2] | also measured
O=C(Nc1ccc(C(=O)O)cc1)OCCC1c2ccccc2-c2ccccc21 [Example 7, N-[9H-(Fluorenyl-9-ethoxycarbonyl)]amino-4-benzoic acid] | 63% | 39% | 25% | Plasma fibrinogen level, drug by itself ([1]; 100 mg/kg p.o., n=5, without adjuvant, basal 2.44±0.08 mg/ml): 4.8 ± 0.6 mg/mL; Maximum inhibition of plasma fibrinogen ([1]; given orally, maximum achieved at 3 mg/kg): 50%; Inhibition of increased ear thickness ([3]; i.p., 10 mg/kg): 46%; Inhibition of increased ear thickness ([3]; i.p., 30 mg/kg): 82%; Inhibition of increased ear thickness ([3]; i.p., 100 mg/kg): 79%; Inhibition of increased ear thickness ([3]; orally, dose of this value not stated (100 and 300 mg/kg in method)): 50%
O=C(Nc1ccc(C(=O)O)cc1)OCCC1c2cc(Cl)ccc2-c2ccc(Cl)cc21 [Example 9] | 78% | 38% | 54% | –
Cc1ccc2c(c1)C(CCOC(=O)Nc1ccc(C(=O)O)cc1)c1cc(C)ccc1-2 [Example 8, N-[9H-(2,7-Dimethylfluorenyl-9-ethoxycarbonyl)]amino-4-benzoic acid] | 69% | 48% | 0% | –
O=C(Nc1ccc(C(=O)O)cc1)SCCC1c2cc(Br)ccc2-c2ccc(Br)cc21 [Example 28] | 72% | 41% | 1% | –
O=C(Nc1ccc(C(=O)O)cc1)SCCC1c2cc(Cl)ccc2-c2ccc(Cl)cc21 [Example 27] | 54% | 52% | – | –
O=C(CCCC1c2ccccc2-c2ccccc21)Nc1ccc(C(=O)O)cc1 [Example 25, 4-[9H-(Fluoren-9-yl)]butyric acid-4-carboxyanilide] | – | 15% | 0% | –
O=C(Nc1ccc(C(=O)O)cc1)SCCC1c2ccccc2-c2ccccc21 [Example 26, N-[2-(9H-Fluoren-9-yl)ethylthioxycarbonyl]-4-aminobenzoic acid] | 70% | 56% | – | –
O=C(CCC1c2ccccc2-c2ccccc21)Nc1ccccc1C(=O)O [Example 14, N-[3-(9-Fluorenyl)propionyl]anthranilic acid] | – | – | – | Inhibition of plasma fibrinogen levels ([1]; 10 mg/kg): 22%; Inhibition of plasma fibrinogen levels ([1]; 30 mg/kg): 19%; Inhibition of plasma fibrinogen levels ([1]; 100 mg/kg): 51%
O=C(Nc1ccc(C(=O)O)cc1)OCCCC1c2ccccc2-c2ccccc21 [Example 23, 4-[3-(9H-Fluoren-9-yl)propoxycarbonyl]-aminobenzoic acid] | – | – | 1% | –
